Test results: publication PMC4604765, “Eye drop delivery of pigment epithelium-derived factor-34 promotes retinal ganglion cell neuroprotection and axon regeneration” (Molecular and Cellular Neurosciences, 2015)
No end group written: not given here.

Columns and labels:
[1] = tested on: βIII-tubulin+ retinal neurons
Description: For all in vitro experiments, adult 6–8-week-old female Sprague–Dawley rats weighing 170–220 g were used. Culture experiments included retinal cells treated with: (1), Neurobasal-A (NBA) alone (Control); and equimolar concentrations of (2), 2.16; (3) 5.4; (4), 10.8 and (5), 21.6 pM PEDF-34/-44; and (6), ciliary neurotrophic factor (CNTF: Peprotech, London, UK), as a positive control at an optimal neuroprotective/axogenic concentration of 440.5 pM, established by us previously ([Ahmed et al., 2009; Douglas et al., 2009]). […] All experiments were performed in triplicate and repeated on three independent occasions.
Mixed adult rat retinal cultures containing enriched populations of retinal neurons, including RGCs, were prepared from 6–8-week-old adult female Sprague–Dawley rats, as described previously ([Ahmed et al., 2006b, 2009, 2010; Douglas et al., 2009; Vigneswara et al., 2013]). Briefly, retinal cells were dissociated using a Papain dissociation kit according to the manufacturer's instructions (Worthington Biochemicals, Lakewood, NJ, USA). […]
The mean number of βIII-tubulin^+ neurons surviving, with neurites and the mean neurite length were quantified as described by us previously ([Vigneswara et al., 2013, 2014]). Briefly, chamber slides were anonymised by a second investigator and βIII-tubulin^+ neuronal soma and neurites quantified in 9 quadrants/well using Axiovision software (Version 4.8; Zeiss) and ImagePro (Version 6.3; Media Cybernetics, Bethesda, MD, USA). Of the 125,000 cells/well plated, the total numbers of neurons in each experiment were determined by βIII-tubulin^+ immunocytochemistry after allowing 30 min for cells to adhere to glass culture slides. […] Neurite outgrowth from at least 180 neurons/condition from the 9 wells was measured, except in control (NBA) cultures, in which a total of 108 neurons were measured.

[2] = tested on: embryonic rat spinal motor neurons; settings: ref Bilak et al., 2002; cited from earlier work
Description: Axotomised RGCs are not viable unless treated with neurotrophic factors such as brain-derived neurotrophic factor, ciliary neurotrophic factor and glial cell line-derived factor ([Ahmed et al., 2006b; Benowitz and Yin, 2007; Watanabe et al., 2003; Yip and So, 2000]). Recently, we confirmed that, after optic nerve crush (ONC), PEDF is RGC neuroprotective and axogenic ([Vigneswara et al., 2013]), whilst other neuroprotective and anti-angiogenic N-terminal fragments of the native peptide exist ([Bilak et al., 2002; Gvritishvili et al., 2010; Li et al., 2006; Mirochnik et al., 2009]) including the ...

## DPFFKVPVNKLAAAVSNFGYDLYRVRSSTSPTTN [PEDF-34]
[1]; 5.4 pM, 4 days in culture
  fold increase in βIII-tubulin+ neuron numbers compared to untreated cultures: 4.5 fold
[1]; PEDF-34 versus equimolar PEDF-44, retinal cultures
  more neuroprotective than PEDF-44 in vitro: 43%
[2]
  neuroprotection of embryonic rat spinal motor neurons: not neuroprotective
other
  time to detection in vitreous body: < 30 min
